Data: the supplement of paper PMC11061612

Legend:
Olaparib = compound: O=C(c1cc(Cc2n[nH]c(=O)c3ccccc23)ccc1F)N1CCN(C(=O)C2CC2)CC1 [Olaparib]; details: max 10 µM
How it was run: (§1)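 Viability was measured with CellTiter-Glo 2.0 luminescence after 72 hours of dosing at a final DMSO of typically 0.2%, and scaled between blank-well and DMSO-well means. Beforehand, cancer cell lines sat 24 hours at 37°C and 5% CO2 in 1536-well plates in 7.5 μl DMEM/F12 or RPMI with 10% FBS. A non-linear mixed effects model fitted two-parameter logistic curves to the dose responses. The single-agent IC50 comes from these fits.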

Selumetinib = compound: Cn1cnc2c(F)c(Nc3ccc(Br)cc3Cl)c(C(=O)NOCCO)cc21 [Selumetinib]; details: max 10 µM
How it was run: as §1

AZD2811 = compound: CCN(CCO)CCCOc1ccc2c(Nc3cc(CC(=O)Nc4cccc(F)c4)[nH]n3)ncnc2c1 [AZD2811]; details: max 1 µM
How it was run: as §1

SG3199 = compound: CC1=CN2[C@@H](C1)C=NC3=CC(=C(C=C3C2=O)OC)OCCCCCOC4=C(C=C5C(=C4)N=C[C@@H]6CC(=CN6C5=O)C)OC [SG3199]; details: max 0.001 µM
How it was run: as §1

Trametinib = compound: CC(=O)Nc1cccc(-n2c(=O)n(C3CC3)c(=O)c3c(Nc4ccc(I)cc4F)n(C)c(=O)c(C)c32)c1 [Trametinib]; details: max 1 µM
How it was run: as §1

Palbociclib = compound: CC(=O)c1c(C)c2cnc(Nc3ccc(N4CCNCC4)cn3)nc2n(C2CCCC2)c1=O [Palbociclib]; details: max 10 µM
How it was run: as §1

Doxorubicin = compound: COc1cccc2c1C(=O)c1c(O)c3c(c(O)c1C2=O)C[C@@](O)(C(=O)CO)C[C@@H]3O[C@H]1C[C@H](N)[C@H](O)[C@H](C)O1 [Doxorubicin]; details: max 1 µM
How it was run: as §1

Taselisib = compound: Cc1nc(-c2cn3c(n2)-c2ccc(-c4cnn(C(C)(C)C(N)=O)c4)cc2OCC3)n(C(C)C)n1 [Taselisib]; details: max 10 µM
How it was run: as §1

AZD6738 = compound: C[C@@H]1COCCN1C2=NC(=NC(=C2)C3(CC3)[S@](=N)(=O)C)C4=C5C=CNC5=NC=C4 [AZD6738]; details: max 10 µM
How it was run: as §1

AZD0156 = compound: CN(C)CCCOc1ccc(-c2ccc3ncc4c(c3c2)n(C2CCOCC2)c(=O)n4C)cn1 [AZD0156]; details: max 3 µM
How it was run: as §1

Prexasertib = compound: COc1cccc(OCCCN)c1-c1cc(Nc2cnc(C#N)cn2)n[nH]1 [Prexasertib]; details: max 1 µM
How it was run: as §1

Venetoclax = compound: CC1(C)CCC(CN2CCN(c3ccc(C(=O)NS(=O)(=O)c4ccc(NCC5CCOCC5)c([N+](=O)[O-])c4)c(Oc4cnc5[nH]ccc5c4)c3)CC2)=C(c2ccc(Cl)cc2)C1 [Venetoclax]; details: max 1 µM
How it was run: as §1

AZD4320 = compound: CN(CC[C@H](CSC1=CC=CC=C1)NC2=C(C=C(C=C2)S(=O)(=O)NC(=O)C3=CC=C(C=C3)N4CCC(CC4)[C@H](C5=CC=CC=C5C6=CC=C(C=C6)Cl)O)S(=O)(=O)C(F)(F)F)CCO [AZD4320]; details: max 1 µM
How it was run: as §1

AZD5991 = compound: Cc1c2c(nn1C)CSCc1cc(n(C)n1)CSc1cc(c3ccccc3c1)OCCCc1c(C(=O)O)n(C)c3c-2c(Cl)ccc13 [AZD5991]; details: max 1 µM
How it was run: as §1

MK-2206 = compound: NC1(c2ccc(-c3nc4ccn5c(=O)[nH]nc5c4cc3-c3ccccc3)cc2)CCC1 [MK-2206]; details: max 10 µM
How it was run: as §1

SN-38 = compound: CCc1c2c(nc3ccc(O)cc13)-c1cc3c(c(=O)n1C2)COC(=O)[C@]3(O)CC [SN-38]; details: max 0.3 µM
How it was run: as §1

AZD1775 = compound: C=CCn1c(=O)c2cnc(Nc3ccc(N4CCN(C)CC4)cc3)nc2n1-c1cccc(C(C)(C)O)n1 [AZD1775]; details: max 3 µM
How it was run: as §1

Dasatinib = compound: CC1=C(C(=CC=C1)Cl)NC(=O)C2=CN=C(S2)NC3=CC(=NC(=N3)C)N4CCN(CC4)CCO [Dasatinib]; details: max 2 µM
How it was run: as §1

Alisertib = compound: COc1cc(Nc2ncc3c(n2)-c2ccc(Cl)cc2C(c2c(F)cccc2OC)=NC3)ccc1C(=O)O [Alisertib]; details: max 10 µM
How it was run: as §1

AZD1390 = compound: CC(C)n1c(=O)n(C)c2cnc3cc(F)c(-c4ccc(OCCCN5CCCCC5)nc4)cc3c21 [AZD1390]; details: max 0.3 µM
How it was run: as §1

Crizotinib = compound: C[C@@H](Oc1cc(-c2cnn(C3CCNCC3)c2)cnc1N)c1c(Cl)ccc(F)c1Cl [Crizotinib]; details: max 10 µM
How it was run: as §1

AZD5153 = compound: COc1nnc2ccc(N3CCC(c4ccc(OCCN5CCN(C)C(=O)[C@H]5C)cc4)CC3)nn12 [AZD5153]; details: max 1 µM
How it was run: as §1

Capivasertib = compound: C1CN(CCC1(C(=O)N[C@@H](CCO)C2=CC=C(C=C2)Cl)N)C3=NC=NC4=C3C=CN4 [Capivasertib]; details: max 10 µM
How it was run: as §1

Savolitinib = compound: C[C@@H](c1ccc2nccn2c1)n1nnc2ncc(-c3cnn(C)c3)nc21 [Savolitinib]; details: max 1 µM
How it was run: as §1

AZD7648 = compound: Cc1cc2ncnn2cc1Nc1ncc2c(n1)n(C1CCOCC1)c(=O)n2C [AZD7648]; details: max 10 µM
How it was run: as §1

AZD8186 = compound: C[C@@H](Nc1cc(F)cc(F)c1)c1cc(C(=O)N(C)C)cc2c(=O)cc(N3CCOCC3)oc12 [AZD8186]; details: max 3 µM
How it was run: as §1

Gefitinib = compound: COc1cc2ncnc(Nc3ccc(F)c(Cl)c3)c2cc1OCCCN1CCOCC1 [Gefitinib]; details: max 10 µM
How it was run: as §1

Lapatinib = compound: CS(=O)(=O)CCNCc1ccc(-c2ccc3ncnc(Nc4ccc(OCc5cccc(F)c5)c(Cl)c4)c3c2)o1 [Lapatinib]; details: max 10 µM
How it was run: as §1

| Cell Line | IC50, cell viability 72 h (Olaparib) [µM] | IC50, cell viability 72 h (Selumetinib) [µM] | IC50, cell viability 72 h (AZD2811) [µM] | IC50, cell viability 72 h (SG3199) [µM] | IC50, cell viability 72 h (Trametinib) [µM] | IC50, cell viability 72 h (Palbociclib) [µM] | IC50, cell viability 72 h (Doxorubicin) [µM] | IC50, cell viability 72 h (Taselisib) [µM] | IC50, cell viability 72 h (AZD6738) [µM] | IC50, cell viability 72 h (AZD0156) [µM] | IC50, cell viability 72 h (Prexasertib) [µM] | IC50, cell viability 72 h (Venetoclax) [µM] | IC50, cell viability 72 h (AZD4320) [µM] | IC50, cell viability 72 h (AZD5991) [µM] | IC50, cell viability 72 h (MK-2206) [µM] | IC50, cell viability 72 h (SN-38) [µM] | IC50, cell viability 72 h (AZD1775) [µM] | IC50, cell viability 72 h (Dasatinib) [µM] | IC50, cell viability 72 h (Alisertib) [µM] | IC50, cell viability 72 h (AZD1390) [µM] | IC50, cell viability 72 h (Crizotinib) [µM] | IC50, cell viability 72 h (AZD5153) [µM] | IC50, cell viability 72 h (Capivasertib) [µM] | IC50, cell viability 72 h (Savolitinib) [µM] | IC50, cell viability 72 h (AZD7648) [µM] | IC50, cell viability 72 h (AZD8186) [µM] | IC50, cell viability 72 h (Gefitinib) [µM] | IC50, cell viability 72 h (Lapatinib) [µM] |
| --- | --- | --- | --- | --- | --- | --- | --- | --- | --- | --- | --- | --- | --- | --- | --- | --- | --- | --- | --- | --- | --- | --- | --- | --- | --- | --- | --- | --- |
| A2058 (Melanoma) | > 10 | > 10 | > 1 | > 0.001 | 0.236 | > 10 | > 1 | 6.33 | > 10 | > 3 | > 1 | > 1 | > 1 | > 1 | > 10 | > 0.3 | 1.23 | > 2 | 1.22 | > 0.3 | 8.25 | 0.656 | > 10 | > 1 | > 10 | > 3 | > 10 | 8.41 |
| HEC-1 (Endometrial Carcinoma) | > 10 | > 10 | > 1 | > 0.001 | > 1 | > 10 | > 1 | > 10 | > 10 | > 3 | 0.493 | > 1 | > 1 | > 1 |  | > 0.3 | 1.81 | > 2 | > 10 | > 0.3 | > 10 | 0.881 | > 10 | > 1 | > 10 | > 3 | > 10 | > 10 |
| KE-37 (T-Lymphoblastic Leukemia) | > 10 | > 10 | 0.0205 | > 0.001 | > 1 | 3.85 | 0.0538 | 3.11 | 0.403 | > 3 | 0.00458 | > 1 | 0.0283 | 0.267 |  | 0.00186 | 0.129 | > 2 | 0.125 | > 0.3 | 3.22 | 0.21 | 1.1 | > 1 | 8.54 | > 3 | > 10 | 8.53 |
| LB996-RCC (Kidney Carcinoma) | > 10 | > 10 | > 1 | > 0.001 | > 1 | > 10 | 0.625 | 1.74 | 9.94 | > 3 | 0.167 | > 1 | > 1 | > 1 |  | 0.00864 | 0.403 | 0.188 | 4.59 | > 0.3 | > 10 | > 1 | 5.32 | > 1 | > 10 | > 3 | > 10 | > 10 |
